Consider 2 molecules from US20240180221A1, “METHODS AND COMPOSITIONS FOR IMPROVED TASTE QUALITY” (ALMENDRA PTE. LTD., priority 2021, published 2024).

This test deals with human taste testers. As to the kind of experiment: Tasting of amino acid solutions in citric acid buffer for bitterness, with and without taste modulator. In kind it is in vivo. The note with it: for bitterness intensity: 7.5 mM solution in pH 3.2 CAB, 0-15 intensity scale; for Bitter Taste Threshold in CAB: pH 3.2 Citric Acid Buffer, serial dilutions from 30 mM to 1.88 mM tasted in ascending order.

Regarding `N[C@@H](Cc1c[nH]c2ccccc12)C(=O)O` [L-Trp, L-Tryptophan], the bitterness intensity was 5 and the “Bitter Taste Threshold in CAB” value is “ca. 3 mM”. Besides, the “bitterness onset and linger” value (in pH 3.2 CAB) was “noticeably slow in onset and quite lingering”.

`N[C@@H](Cc1ccccc1)C(=O)O` [L-Phe, L-Phenylalanine]: the bitterness intensity is 5 and the “Bitter Taste Threshold in CAB” value is “ca. 3 mM”.
